From patent publication US10363284B2, “β-hairpin peptidomimetics” (POLYPHOR AG, priority 2012, dated 2019)
Positions of bridges follow the written chain, without caps; N, C: chain ends. Non-standard residues stand in square brackets, D forms with d. Residues, ends and D or L forms follow the SMILES beside them. dLys(iPr) = CC(C)NCCCC[C@@H](N)C(=O)O; Lys(iPr) = CC(C)NCCCC[C@H](N)C(=O)O; Orn(iPr) = CC(C)NCCC[C@H](N)C(=O)O; Ac3c = NC1(C(=O)O)CC1

Columns and labels:
CXCR4 receptor = biological target: T1, CXCR4 receptor (Homo sapiens, UniProt P61073); assay: Chemotactic assay (cell migration assay), Namalwa cells, SDF-1 gradient; format: cell-based
T1 construct: CXCR4 natively expressing non-adherent cells; endogenous in cells; host or cells: Namalwa cells (ATCC CRL-1432)
T1 sequence (P61073 whole entry): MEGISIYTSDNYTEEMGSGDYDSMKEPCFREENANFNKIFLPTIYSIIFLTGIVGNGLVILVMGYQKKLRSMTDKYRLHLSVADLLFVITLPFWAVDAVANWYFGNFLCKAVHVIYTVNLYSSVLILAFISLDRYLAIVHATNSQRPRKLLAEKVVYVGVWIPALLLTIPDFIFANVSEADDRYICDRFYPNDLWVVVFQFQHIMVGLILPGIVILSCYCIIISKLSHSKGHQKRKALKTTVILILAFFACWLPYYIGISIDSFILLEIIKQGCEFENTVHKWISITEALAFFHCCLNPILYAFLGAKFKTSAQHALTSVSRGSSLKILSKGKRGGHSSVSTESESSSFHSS
Protocol: Namalwa cells (CXCR4 natively expressing non-adherent cells, ATCC CRL-1432) were cultured in RPM11640 plus 10% FBS, and pen/strept. HELA cells were maintained in RPMI1640 plus 10% FBS, pen/strept and 2 mM L-glutamine. Cos-7 cells were grown in DMEM medium with […] glucose supplemented with 10% FCS, pen/strept and 2 mM L-glutamine. All cell lines were grown at 37° C. at 5% CO2. Cell media, media supplements, PBS-buffer, HEPES, antibiotic/antimycotic, pen/strept, non essential amino acid, L-glutamine, β-mercaptoethanol and sera were purchased from Gibco (Pailsey, UK). All fine chemicals were supplied by Merck (Darmstadt, Germany).
The chemotactic response of Namalwa cells (ATCC CRL-1432) to a gradient of stromal cell-derived factor 1α (SDF-1) was measured using a modified Boyden chamber chemotaxis system (ChemoTx; Neuroprobe). […] Migrated cells were transferred using a “funnel” adaptor to a receiving 96-well plate and the cell number was determined by using the CyQuant™ NF cell proliferation assay (Invitrogen) based on the measurement of cellular DNA content via fluorescent dye binding. […] After incubation for 0.5 h at room temperature the plate was sealed and the fluorescence intensity of each sample was measured by using a Wallac 1420 VICTOR^2™ plate reader (PerkinElmer) with excitation at 485 nm and emission detection at 535 nm. […]

[1] = Pharmacokinetic study (PK) after intravenous administration; format: in vivo, male CD-1 mice; conditions: mouse, i.v. 1 mg/kg; for AUC(0-inf) / Cmax / half-life / clearance / Vd: one-compartmental model; for clearance: read-out: CLiv (converted); for Vd: read-out: Vdis
Protocol: For the compounds of Ex. 1 and Ex. 2 pharmacokinetic studies after intravenous (i.v.) administration were performed.
30 grams (±20%) male CD-1 mice obtained from Charles River Laboratories Deutschland GmbH were used. The vehicle, phosphate buffered saline, was added to give a final concentration of 0.5 mg/mL of the compound. The volume was 2 mL/kg and the compound was injected to give a final intravenous dose of 1 mg/kg. Approximately 300-400 μL of blood was removed under light isoflurane anesthesia by cardiac puncture at predetermined time intervals (5, 15, 30 min and 1, 2, 3, 4, hours) and added to heparinized tubes. Plasma was removed from pelleted cells upon centrifugation and frozen at −80° C. prior to HPLC-MS analysis.
Aliquots of 50 μL each of mouse plasma of untreated aminals (“blank” mouse plasma) were spiked with known amounts of the compounds Ex. 1 and Ex. 2 in order to obtain 10 plasma calibration samples for each compound in the range 1-4000 ng/mL.
Aliquots of 50 μL each of mouse plasma from treated animals were used as plasma study samples.
All plasma samples were spiked with an appropriate internal standard and extracted with acetonitrile containing 2% formic acid. Supernatants were evaporated to dryness under nitrogen and the remaining solids reconstituted in water+0.2% formic acid/acetonitrile 95/5 (v/v).
Extracts were then analyzed by reverse-phase chromatography (Acquity HSS C18 SB, 100×2.1 mm, 1.8 μm column, Waters), using the following conditions: mobile phases: (A) water+0.1% formic acid/acetonitrile 95/5 (v/v), (B) aceto-nitrile/water+0.1% formic acid 95/5 (v/v), gradient: 1% (B) 0-0.1 min, 40% (B) 0.1-2.5. The detection and quantification was performed by mass spectrometry, with electrospray interface in positive mode and selective fragmentation of analytes (4000 Q Trap mass spectrometer, AB Sciex).
PK parameters were calculated by WinNonLin™ software version 5.3 (Pharsight-A Certara™ Company, Mountain View, Calif. 94041 USA) using a one-compartmental model analysis. PK parameters were determined by least-square fitting of the model to the experimental data.

[2] = Plasma stability, human plasma; format: in vitro ADME; conditions: for human pl. T1/2: 37° C.; for remaining at 24 h, 10 μM: 1440 min, read-out: human pl. cpd left at 1440 min
Protocol: The stability of the peptides in human and mouse plasma was determined by applying the following method: 346.5 μL/deep well of freshly thawed human plasma (Basler Blutspende-dienst) and mouse plasma (Harlan Sera-Lab, UK), respectively, were spiked with 3.5 μL/well of compound dissolved in DMSO/H2O (90/10 [v/v], 1 mM, triplicate) and incubated at 37° C. At t=0, 15, 30, 60, 120, 240 and 1440 min aliquots of 50 μL were transferred to filtration plate wells containing 150 μL/well of 2% formic acid in acetonitrile. Following shaking for 2 min the occurred suspensions were filtrated by vacuum. 100 μL of each filtrate were transferred to a propylene microtiter plate and dried under N2. The residual solids were reconstituted by adding 100 μL/well of water/acetonitrile, 95/5 (v/v)+0.2% formic acid and analyzed by LC/MS as follows: Column: Waters, XBridge C18, mobile phases: (A) water+0.1% formic acid and (B) acetonitrile/water, 95/5 (v/v)+0.1% formic acid, gradient: 5%-100% (B) in 1.8 minutes, electrospray ionization, MRM detection (triple quadrupole). The peak areas were determined and triplicate values are averaged. The stability is expressed in percent of the initial value at t=0. (tx/t0×100). By using the TREND function of EXCEL (Microsoft Office 2003) T1/2 were determined.

[3] = male, CD-1, plasma, iv, read-out: Calc. Conc. (plasma)

`CC(C)NCCCC[C@@H]1NC(=O)[C@H](CCC(N)=O)NC(=O)[C@H](Cc2ccc(O)cc2)NC(=O)[C@@H]2CSSC[C@H](NC(=O)[C@H](Cc3ccc(O)cc3)NC(=O)[C@H](Cc3c[nH]cn3)NC(=O)[C@H](Cc3ccc(O)cc3)NC(=O)[C@@H]3CCCN3C(=O)[C@@H](CCCCNC(C)C)NC1=O)C(=O)N[C@@H](CO)C(=O)N[C@@H](C)C(=O)N1CCC[C@@H]1C(=O)N[C@@H](CCCNC(C)C)C(=O)N[C@@H](CCCNC(=N)N)C(=O)N[C@@H](Cc1ccc(O)cc1)C(=O)N2` [Ex. 1, cyclo(-Tyr^1-His^2-Tyr^3-Cys^4-Ser^5-Ala^6-^DPro^7-Orn(iPr)^8-Arg^9-Tyr^10-Cys^11-Tyr^12-Gln^13-Lys(iPr)^14-^DLys(iPr)^15-Pro^16-), disulfide bond between Cys^4 and Cys^11] (cyclo(A[dP][Orn(iPr)]RYCYQ[Lys(iPr)][dLys(iPr)]PYHYCS); disulfide 6-15) showed an IC50 (CXCR4 receptor) of 0.17 ± 0.1 nM, an AUC(0-inf) ([1]; male, CD-1, plasma, iv) of 1020 ng·h/mL and a Cmax ([1]; male, CD-1, plasma, iv) of 1880 ng/mL. For the same compound, the half-life ([1]; male, CD-1, plasma, iv) was 24 min, the clearance ([1]; male, CD-1, plasma, iv) was 16.4 mL/min/kg and the Vd ([1]; male, CD-1, plasma, iv) was 0.532 L/kg. The level at 0.083 h [1, 3] was 1690 ng/mL, the level at 0.25 h [1, 3] was 1050 ng/mL and the level at 0.5 h [1, 3] was 749 ng/mL. For the same compound, the level at 1 h [1, 3] was 385 ng/mL, the level at 2 h [1, 3] was 61 ng/mL and the “Calc. Conc. (plasma)” value ([1]; time 3 h) was “<LoQ”. For the same compound, the “Calc. Conc. (plasma)” value ([1]; time 4 h) was “<LoQ”, the “human pl. T1/2” value [2] was 1440 min and the remaining at 24 h, 10 μM [2] was 100%.
With `CC(C)NCCCC[C@@H]1NC(=O)[C@H](CCC(N)=O)NC(=O)[C@H](Cc2ccc(O)cc2)NC(=O)[C@@H]2CSSC[C@H](NC(=O)[C@H](Cc3ccc(O)cc3)NC(=O)[C@H](Cc3c[nH]cn3)NC(=O)[C@H](Cc3ccc(O)cc3)NC(=O)[C@@H]3CCCN3C(=O)[C@H]3CCCN3C1=O)C(=O)N[C@@H](CO)C(=O)NC1(CC1)C(=O)N1CCC[C@@H]1C(=O)N[C@@H](CCCNC(C)C)C(=O)N[C@@H](CCCNC(=N)N)C(=O)N[C@@H](Cc1ccc(O)cc1)C(=O)N2` [Ex. 2, cyclo(-Tyr^1-His^2-Tyr^3-Cys^4-Ser^5-Acc^6-^DPro^7-Orn(iPr)^8-Arg^9-Tyr^10-Cys^11-Tyr^12-Gln^13-Lys(iPr)^14-^DPro^15-Pro^16-), disulfide bond between Cys^4 and Cys^11] (cyclo(YHYCS[Ac3c][dP][Orn(iPr)]RYCYQ[Lys(iPr)][dP]P); disulfide 4-11) the IC50 (CXCR4 receptor) was 0.32 ± 0.1 nM, the AUC(0-inf) ([1]; male, CD-1, plasma, iv) was 1460 ng·h/mL and the Cmax ([1]; male, CD-1, plasma, iv) was 1470 ng/mL. For the same compound, the half-life ([1]; male, CD-1, plasma, iv) was 42 min, the clearance ([1]; male, CD-1, plasma, iv) was 11.4 mL/min/kg and the Vd ([1]; male, CD-1, plasma, iv) was 0.681 L/kg. For the same compound, the level at 0.083 h [1, 3] was 1250 ng/mL, the level at 0.25 h [1, 3] was 1210 ng/mL and the level at 0.5 h [1, 3] was 996 ng/mL. The level at 1 h [1, 3] was 516 ng/mL, the level at 2 h [1, 3] was 117 ng/mL and the level at 3 h ([1]; male, CD-1, plasma, iv, time 3 h, read-out: Calc. Conc. (plasma)) was 24 ng/mL. For the same compound, the level at 4 h ([1]; male, CD-1, plasma, iv, time 4 h, read-out: Calc. Conc. (plasma)) was 14 ng/mL, the “human pl. T1/2” value [2] was 1440 min and the remaining at 24 h, 10 μM [2] was 87%.
